ChEMBL document CHEMBL1201862, “PubChem BioAssay data set” (2004)
Active and inactive are the calls of the source.

How the values were obtained:
[1] = biological target: FAD-linked sulfhydryl oxidase ALR (Homo sapiens, UniProt P55789); experiment: inhibitors of human ALR sulfhydryl oxidase, dose response, biochemical, H2O2 detection, luminescence, cherry-pick (AID 493248)
Fatty acid synthase = Fatty acid synthase (Homo sapiens, UniProt P49327); experiment: FAS thioesterase domain inhibitors, dose response, biochemical, kinetic fluorescence intensity (AID 624326); type: functional;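 note: rate of fluorescence rise from hydrolysis of a fluorogenic O-methyl fluorescein ester substrate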
Chain of Fatty acid synthase (P49327 whole entry, the tested form may be a part): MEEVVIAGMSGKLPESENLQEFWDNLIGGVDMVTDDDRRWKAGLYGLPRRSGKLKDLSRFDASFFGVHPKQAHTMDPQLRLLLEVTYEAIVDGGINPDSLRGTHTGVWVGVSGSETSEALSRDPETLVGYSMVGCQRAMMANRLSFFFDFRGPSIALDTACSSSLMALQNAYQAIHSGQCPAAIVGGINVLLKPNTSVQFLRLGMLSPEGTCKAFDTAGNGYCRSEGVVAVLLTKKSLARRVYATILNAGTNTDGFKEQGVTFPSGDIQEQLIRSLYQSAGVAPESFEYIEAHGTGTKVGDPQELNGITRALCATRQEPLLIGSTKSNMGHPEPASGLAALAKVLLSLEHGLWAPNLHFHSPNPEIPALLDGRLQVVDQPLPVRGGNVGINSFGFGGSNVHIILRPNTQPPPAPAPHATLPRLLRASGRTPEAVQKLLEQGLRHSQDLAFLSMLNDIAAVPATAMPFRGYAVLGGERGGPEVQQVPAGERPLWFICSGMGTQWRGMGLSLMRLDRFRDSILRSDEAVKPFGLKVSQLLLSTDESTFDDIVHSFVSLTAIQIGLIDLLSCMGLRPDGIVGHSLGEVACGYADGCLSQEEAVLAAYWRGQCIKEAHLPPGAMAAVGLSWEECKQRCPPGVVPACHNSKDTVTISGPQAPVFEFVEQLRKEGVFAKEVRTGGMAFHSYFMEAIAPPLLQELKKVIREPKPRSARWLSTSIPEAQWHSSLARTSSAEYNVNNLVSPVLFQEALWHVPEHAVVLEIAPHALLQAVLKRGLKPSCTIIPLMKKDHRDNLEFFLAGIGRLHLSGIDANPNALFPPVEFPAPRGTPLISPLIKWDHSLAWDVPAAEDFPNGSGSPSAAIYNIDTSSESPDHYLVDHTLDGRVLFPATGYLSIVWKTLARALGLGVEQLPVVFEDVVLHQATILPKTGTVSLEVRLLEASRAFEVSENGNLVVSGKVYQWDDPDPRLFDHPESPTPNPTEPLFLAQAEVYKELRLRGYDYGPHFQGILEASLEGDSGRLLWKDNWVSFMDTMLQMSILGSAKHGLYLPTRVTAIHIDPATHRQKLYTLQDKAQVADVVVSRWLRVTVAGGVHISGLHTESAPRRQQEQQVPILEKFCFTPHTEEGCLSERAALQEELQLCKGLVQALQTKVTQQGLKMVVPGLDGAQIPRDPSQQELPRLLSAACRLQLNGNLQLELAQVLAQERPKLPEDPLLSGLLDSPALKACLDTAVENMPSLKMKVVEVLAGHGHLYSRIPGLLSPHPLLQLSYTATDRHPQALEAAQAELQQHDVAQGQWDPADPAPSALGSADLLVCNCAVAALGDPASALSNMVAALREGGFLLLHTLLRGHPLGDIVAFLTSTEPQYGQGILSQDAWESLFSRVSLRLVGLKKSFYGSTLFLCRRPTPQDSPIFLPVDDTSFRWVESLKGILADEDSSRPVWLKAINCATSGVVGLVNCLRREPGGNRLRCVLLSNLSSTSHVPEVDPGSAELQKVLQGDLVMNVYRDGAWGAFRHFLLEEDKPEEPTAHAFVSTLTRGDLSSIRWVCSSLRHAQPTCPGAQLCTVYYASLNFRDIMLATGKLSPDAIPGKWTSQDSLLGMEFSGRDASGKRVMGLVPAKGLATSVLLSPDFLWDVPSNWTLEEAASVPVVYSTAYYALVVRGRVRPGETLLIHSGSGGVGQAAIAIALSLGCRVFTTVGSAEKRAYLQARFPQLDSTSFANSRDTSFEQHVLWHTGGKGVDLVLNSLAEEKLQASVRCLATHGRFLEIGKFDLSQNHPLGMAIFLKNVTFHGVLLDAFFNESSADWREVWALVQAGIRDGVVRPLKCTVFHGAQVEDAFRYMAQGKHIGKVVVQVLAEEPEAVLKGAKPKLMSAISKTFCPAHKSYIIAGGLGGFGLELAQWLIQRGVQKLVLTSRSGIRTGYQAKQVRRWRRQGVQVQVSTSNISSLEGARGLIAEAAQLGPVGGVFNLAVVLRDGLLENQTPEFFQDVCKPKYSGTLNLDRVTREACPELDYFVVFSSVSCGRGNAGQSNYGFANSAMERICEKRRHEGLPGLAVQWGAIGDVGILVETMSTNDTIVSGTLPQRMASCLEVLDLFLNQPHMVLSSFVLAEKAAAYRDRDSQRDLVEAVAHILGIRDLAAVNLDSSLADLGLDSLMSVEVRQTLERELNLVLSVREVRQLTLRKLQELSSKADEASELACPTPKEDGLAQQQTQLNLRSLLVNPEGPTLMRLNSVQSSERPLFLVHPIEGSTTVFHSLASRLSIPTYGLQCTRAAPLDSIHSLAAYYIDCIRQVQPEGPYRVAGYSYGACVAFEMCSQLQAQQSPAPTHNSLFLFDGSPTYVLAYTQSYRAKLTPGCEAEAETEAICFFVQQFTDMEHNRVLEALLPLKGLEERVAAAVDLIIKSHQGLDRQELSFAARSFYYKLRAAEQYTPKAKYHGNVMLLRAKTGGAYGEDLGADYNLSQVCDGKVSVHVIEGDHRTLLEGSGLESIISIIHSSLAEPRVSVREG

[2] = biological target: NAD-dependent protein deacylase sirtuin-5, mitochondrial (Homo sapiens, UniProt Q9NXA8); experiment: SIRT5 desuccinylase inhibitors, dose response, biochemical, fluorescence imaging, cherry-pick, set 5 (AID 720591);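 note: desuccinylation of succinyl peptide AMC substrate read as fluorescence after trypsin release; potency of inhibitors that lower fluorescence and may act on trypsin instead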
Chain of NAD-dependent protein deacylase sirtuin-5, mitochondrial (Q9NXA8 whole entry): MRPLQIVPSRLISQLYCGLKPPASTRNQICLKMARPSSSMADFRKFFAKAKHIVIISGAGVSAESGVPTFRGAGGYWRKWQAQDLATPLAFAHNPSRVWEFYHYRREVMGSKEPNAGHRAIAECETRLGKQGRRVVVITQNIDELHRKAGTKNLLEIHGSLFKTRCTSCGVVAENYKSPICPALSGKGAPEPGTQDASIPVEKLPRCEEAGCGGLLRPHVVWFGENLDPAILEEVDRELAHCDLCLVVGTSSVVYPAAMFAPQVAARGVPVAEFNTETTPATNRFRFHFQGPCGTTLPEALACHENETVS

Protein Tat = biological target: T1, Protein Tat (Human immunodeficiency virus type 1 group M subtype B (isolate HXB2)(HIV-1), UniProt P04608); type: functional;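 note: tat binding to TAR RNA read out by fluorescence polarization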
T1 sequence (P04608 whole entry): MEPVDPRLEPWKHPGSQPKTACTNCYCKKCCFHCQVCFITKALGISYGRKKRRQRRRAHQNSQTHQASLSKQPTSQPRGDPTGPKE

[3] = test system: Streptococcus sp. 'group A'; experiment: growth inhibition of control SK(-) GAS strain, dose response, counter-screen for streptokinase expression inhibitor project, luminescence, kanamycin, BacTiterGlo, confirmation (AID 1900); type: functional, organism-based
Streptokinase A = biological target: T2, Streptokinase A (Streptococcus pyogenes serotype M1, UniProt P10520); experiment: S. pyogenes streptokinase expression inhibitors, potency, dose response, plasminogen activation absorbance, OD405 (AID 1914); type: functional, Streptococcus pyogenes M1 GAS;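 note: secreted streptokinase activity via plasminogen activation per viability signal from cell pellet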
T2 sequence (P10520 whole entry): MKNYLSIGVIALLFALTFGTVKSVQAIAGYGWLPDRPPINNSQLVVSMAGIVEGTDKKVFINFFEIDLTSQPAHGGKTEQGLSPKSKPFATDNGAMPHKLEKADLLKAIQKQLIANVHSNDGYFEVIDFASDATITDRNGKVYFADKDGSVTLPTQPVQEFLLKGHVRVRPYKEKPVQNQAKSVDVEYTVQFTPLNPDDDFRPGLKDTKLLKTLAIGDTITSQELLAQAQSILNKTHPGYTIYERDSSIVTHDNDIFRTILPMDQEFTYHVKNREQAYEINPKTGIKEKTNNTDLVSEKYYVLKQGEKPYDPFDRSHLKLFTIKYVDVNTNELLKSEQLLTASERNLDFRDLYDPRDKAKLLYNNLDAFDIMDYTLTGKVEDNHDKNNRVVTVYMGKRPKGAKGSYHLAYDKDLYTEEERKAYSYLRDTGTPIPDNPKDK

[4] = microbe, parasite or virus in culture; type: functional; settings: Mycobacterium tuberculosis
Streptococcus = experiment: Group A Streptococcus viability loss, dose response, counter-screen for streptokinase expression inhibitor project, luminescence, BacTiterGlo (AID 1915); type: functional, organism-based;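 note: potency for reduction of bacterial viability or growth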
Vero = experiment: cells; type: functional; settings: Chlorocebus sabaeus
[5] = Luminescence Cell-Based Dose Confirmation HTS to Identify Activators of 5'UTR Stem-Loop Driven Alpha-Synuclein mRNA Translation in H4 Neuroglioblastoma Cells. [Related pubchem assays: 1829 (Project Summary), 1814 (Primary HTS)]; type: functional
[6] = Luminescence Cell-Based Dose Response HTS to Identify Activators of Luciferase Translation or Activity in H4 […] Cells. [Related pubchem assays: 1829 (Project Summary), 1814 (Primary HTS)]; type: functional
H4 = experiment: Luminescence Cell-Based Dose Response HTS to Identify Activators of 5'UTR Stem-Loop Driven Prion Protein mRNA Translation in H4 Neuroglioblastoma Cells. [Related pubchem assays: 1829 (Project Summary), 1814 (Primary HTS)]; type: functional; settings: Homo sapiens
[7] = biological target: Dual specificity tyrosine-phosphorylation-regulated kinase 1A (Rattus norvegicus, UniProt Q63470); type: biochemical, Homo sapiens
[8] = biological target: Disintegrin and metalloproteinase domain-containing protein 17 (Homo sapiens, UniProt P78536); experiment: exosite inhibitors of ADAM17, dose response, biochemical (AID 743260)
Chain of Disintegrin and metalloproteinase domain-containing protein 17 (P78536 whole entry, the tested form may be a part): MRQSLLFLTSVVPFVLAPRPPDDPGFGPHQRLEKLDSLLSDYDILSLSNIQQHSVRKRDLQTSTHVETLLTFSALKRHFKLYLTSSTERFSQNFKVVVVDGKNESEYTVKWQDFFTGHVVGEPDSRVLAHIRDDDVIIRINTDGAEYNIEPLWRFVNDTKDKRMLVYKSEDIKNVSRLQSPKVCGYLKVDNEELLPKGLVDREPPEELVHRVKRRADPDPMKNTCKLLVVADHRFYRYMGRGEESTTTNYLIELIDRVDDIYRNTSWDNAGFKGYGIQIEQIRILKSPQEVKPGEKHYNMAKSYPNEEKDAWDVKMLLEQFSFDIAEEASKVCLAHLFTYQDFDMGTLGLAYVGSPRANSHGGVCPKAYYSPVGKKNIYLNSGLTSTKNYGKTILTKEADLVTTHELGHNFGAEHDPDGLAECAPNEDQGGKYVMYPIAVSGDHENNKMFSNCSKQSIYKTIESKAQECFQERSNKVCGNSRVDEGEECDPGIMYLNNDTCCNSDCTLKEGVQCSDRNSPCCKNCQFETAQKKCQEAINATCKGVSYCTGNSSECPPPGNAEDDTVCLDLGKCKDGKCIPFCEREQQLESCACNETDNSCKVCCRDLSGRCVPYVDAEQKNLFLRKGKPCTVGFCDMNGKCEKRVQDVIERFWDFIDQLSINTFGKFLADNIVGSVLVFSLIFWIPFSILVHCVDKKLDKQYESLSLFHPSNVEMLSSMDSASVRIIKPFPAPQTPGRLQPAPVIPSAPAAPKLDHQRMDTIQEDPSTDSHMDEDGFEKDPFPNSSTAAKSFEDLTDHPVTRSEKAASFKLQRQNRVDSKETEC

Albumin = Albumin (Bos taurus, UniProt P02769); experiment: Counterscreen for inhibitors of T-cell receptor (TCR)-CD3 interaction: Fluorescence-based biochemical high throughput dose response assay to identify inhibitors of T-cell receptor (TCR)-CD3 interaction using a TAMRA-labeled BSA probe.; type: functional
Chain of Albumin (P02769 whole entry): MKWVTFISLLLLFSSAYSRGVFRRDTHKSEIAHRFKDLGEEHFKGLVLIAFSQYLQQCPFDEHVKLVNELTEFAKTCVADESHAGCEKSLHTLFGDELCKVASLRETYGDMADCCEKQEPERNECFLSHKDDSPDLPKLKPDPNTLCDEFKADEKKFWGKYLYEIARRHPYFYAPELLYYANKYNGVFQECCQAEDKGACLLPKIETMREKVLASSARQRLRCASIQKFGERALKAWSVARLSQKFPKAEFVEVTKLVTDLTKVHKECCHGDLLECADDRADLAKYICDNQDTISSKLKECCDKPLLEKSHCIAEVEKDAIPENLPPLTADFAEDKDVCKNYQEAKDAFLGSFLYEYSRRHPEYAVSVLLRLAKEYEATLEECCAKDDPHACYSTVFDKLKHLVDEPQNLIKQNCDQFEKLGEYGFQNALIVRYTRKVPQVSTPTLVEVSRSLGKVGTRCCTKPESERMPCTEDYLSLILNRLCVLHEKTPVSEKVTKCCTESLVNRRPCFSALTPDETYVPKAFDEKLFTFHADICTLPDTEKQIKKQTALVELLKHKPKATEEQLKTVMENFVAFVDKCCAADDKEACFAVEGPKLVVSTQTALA

[9] = inhibitors of intracellular T. cruzi replication, confirmation, NIH3T3 host cells, beta-gal luminescence (AID 2044); type: functional, cell-based;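 note: intracellular parasites grown in NIH/3T3 mouse fibroblasts as host cells; luminescent beta-galactosidase reporter signal from transgenic T. cruzi replicating inside host cells; inhibitors lower the luminescence signal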
[10] = cytotoxicity toward NIH3T3 fibroblasts, dose response, counter-screen, cell-based, ATP luminescence, mouse fibroblasts (AID 2010); type: functional;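 note: cells exposed to compound for about 90 hours before reading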
[11] = half-maximal inhibitory concentration for glucagon-like peptide-1 release, STC-1 cell line, dose-response (AID 1117345); type: functional, cell-based
[12] = Glucagon-like peptide 1 release potency, NCI-H716 cell line, dose-response, half-maximal inhibitory concentration (AID 1117344); type: functional, cell-based

Chain of FAD-linked sulfhydryl oxidase ALR (P55789 whole entry, the tested form may be a part): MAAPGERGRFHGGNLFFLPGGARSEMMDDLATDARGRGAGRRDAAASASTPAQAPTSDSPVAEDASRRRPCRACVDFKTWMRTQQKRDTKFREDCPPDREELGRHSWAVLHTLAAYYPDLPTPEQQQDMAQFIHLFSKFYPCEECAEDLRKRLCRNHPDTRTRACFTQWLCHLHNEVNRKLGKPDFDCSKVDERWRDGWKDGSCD

O=S(=O)(c1ccc(-c2csc(-c3cccnc3)n2)cc1)N1CCCC1
AC50 [1]: 0.268 µM (active)
IC50 (Fatty acid synthase): 1.62 µM (active)

CCN(CC(=O)Nc1ccccc1C(F)(F)F)C(=O)c1ccc2c(=O)n3c(nc2c1)CCC3
AC50 [2]: > 30 µM (inactive)

CSc1oc(-c2ccco2)nc1S(=O)(=O)c1ccccc1
IC50 (Protein Tat): > 100 µM (active)

COc1cccc(NC(=O)Nc2nc(SC(C)(C)C)ns2)c1
EC50 [3]: 9.49 µM (active)
EC50 (Streptokinase A): 9.69 µM (active)
CC50 [4]: 7.82 µM (active)
EC50 (Streptococcus): > 50 µM (not active)
CC50 (Vero): 7.41 µM (active)

Cc1ccc(CCN2CC(C(=O)NCCN(C)C)CC2=O)cc1 (stereo not drawn)
AC50 [2]: > 30 µM (inactive)

C[C@H](CO)N1C[C@H](C)[C@H](CN(C)C(=O)Nc2cccc3ccccc23)OCc2cnnn2CCCC1=O
AC50 [2]: 2.28 µM (active)

Fc1cccc(/C=N/Nc2[nH]cnc3ncnc2-3)c1
EC50 [5]: > 120 µM (not active)
EC50 [6]: 40.8 µM (active)
EC50 (H4): > 120 µM (not active)
AC50 [7]: 10.1 µM (active)

C/C(=N\N=C(/N)SC1CC(=O)N(c2ccc(Br)cc2)C1=O)c1cccs1 (stereo not drawn)
EC50 [3]: 6.72 µM (active)
EC50 (Streptokinase A): 9.08 µM (active)
EC50 (Streptococcus): 19.1 µM (active)
IC50 [8]: > 69.5 µM (inactive)

COc1ccc(CC(=O)N/N=C/c2cc([N+](=O)[O-])cc(Br)c2O)cc1
EC50 [3]: 3.53 µM (active)
EC50 (Streptokinase A): > 150 µM (not active)
EC50 (Streptococcus): 6.89 µM (active)
IC50 (Albumin): > 94.1 µM (inactive)

C#C[C@]1(O)CC[C@H]2[C@@H]3CCc4cc(OC5CCCC5)ccc4[C@H]3CC[C@@]21C [QUINESTROL]
EC50 [5]: > 120 µM (not active)
EC50 [6]: > 120 µM (not active)
EC50 [3]: 1.94 µM (active)
EC50 (H4): > 120 µM (not active)
EC50 [9]: 4.43 µM (active)
CC50 [4]: > 40 µM (active)
EC50 [10]: > 60 µM (not active)
EC50 (Streptococcus): 4.17 µM (active)
IC50 [11]: > 40 µM (inactive)
IC50 [12]: 17.6 µM (inactive)
